# Laboratory results reported in patent publication US9943516B2, “Inhibitors of IRAK4 activity” (MERCK SHARP & DOHME CORP., priority 2014, dated 2018).
# Molecular target: IRAK4 (Homo sapiens (Human), UniProt Q9NWZ3)
# Assay: IRAK4 Kinase Assay (IMAP fluorescence polarization)
# Format: biochemical
# Settings: 0.5 nM GST tagged IRAK4, 100 μM ATP, 30 minutes at 25° C.
# Procedure: The kinase activity of IRAK4 is determined by its ability to catalyze the phosphorylation of a fluorescent polypeptide substrate. The extent of phosphorylation is measured using the IMAP technology (Molecular Devices) where the phosphorylated fluorescent substrate binds to the large M(III)-based nanoparticles which reduces the rotational speed of the substrate and thus increases its fluorescent polarization (FP).
# 20 μL reaction mixture contains 10 mM TriHCl, pH 7.2, 0.5 nM GST tagged IRAK4 (SignalChem), 100 nM fluorescent peptide substrate (RP7030, Molecular Devices), 100 μM ATP, 1 mM DDT, 1 mM MgCl2, and 0.01% Tween 20. The reaction is initiated by the addition of ATP. After incubation for 30 minutes at 25° C., 60 μL of Progressive IMAP Reagent (Molecular Devices) is added to stop the reaction. Change in RP7030's FP is determined by a FP reader (Analyst HT, LJL BioSystems).
# Sequence of IRAK4 (Q9NWZ3 whole entry): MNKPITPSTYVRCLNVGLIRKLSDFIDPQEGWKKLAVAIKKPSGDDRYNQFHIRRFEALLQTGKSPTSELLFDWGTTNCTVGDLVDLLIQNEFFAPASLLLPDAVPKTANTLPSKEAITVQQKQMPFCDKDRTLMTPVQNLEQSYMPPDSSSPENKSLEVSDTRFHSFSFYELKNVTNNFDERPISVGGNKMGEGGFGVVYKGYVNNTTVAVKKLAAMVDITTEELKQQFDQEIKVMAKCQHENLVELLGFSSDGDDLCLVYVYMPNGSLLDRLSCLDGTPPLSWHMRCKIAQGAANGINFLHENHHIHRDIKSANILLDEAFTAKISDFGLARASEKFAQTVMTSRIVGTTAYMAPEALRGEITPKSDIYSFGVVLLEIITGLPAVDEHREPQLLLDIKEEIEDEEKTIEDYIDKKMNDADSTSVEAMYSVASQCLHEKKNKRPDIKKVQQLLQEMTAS
row,Compound,IC50 [nM]
1,"OC1CCCC(c2ccc3ncnc(N[C@H]4CC[C@H](N5CCOCC5)CC4)c3c2)C1 (single isomer, unassigned) [Example 4-1, 3-(4-(((trans)-4-Morpholinocyclohexyl)amino)quinazolin-6-yl)cyclohexanol]",39
2,"OC1CCCC(c2ccc3ncnc(N[C@H]4CC[C@H](N5CCOCC5)CC4)c3c2)C1 (single isomer, unassigned) [Example 4-3, 3-(4-(((trans)-4-Morpholinocyclohexyl)amino)quinazolin-6-yl)cyclohexanol]",11
3,"Cc1c(C2CC2)ccc2ncnc(N[C@H]3CC[C@H](N4CCOCC4)CC3)c12 [Example 1-1, 6-Cyclopropyl-5-methyl-N-(trans-4-morpholinocyclohexyl)quinazolin-4-amine]",345
4,"CN(C)C1CCC(Nc2ncnc3ccc(C4CC4)cc23)CC1 (stereo not shown) [Example 1-2, N′-(6-cyclopropylquinazolin-4-yl)-N,N-dimethylcyclohexane-1,4-diamine]",12
5,"c1nc(N[C@H]2CC[C@H](N3CCOCC3)CC2)c2cc(C3CC3)ccc2n1 [Example 1-3, 6-cyclopropyl-N-(trans-4-morpholin-4-ylcyclohexyl)quinazolin-4-amine]",5
6,"Fc1cc2ncnc(N[C@H]3CC[C@H](N4CCOCC4)CC3)c2cc1C1CC1 [Example 1-4, 6-cyclopropyl-7-fluoro-N-(trans-4-morpholin-4-ylcyclohexyl)quinazolin-4-amine]",12
7,"CC1(c2ccc3ncnc(N[C@H]4CC[C@H](N5CCOCC5)CC4)c3c2)CC1 [Example 1-5, 6-(1-methylcyclopropyl)-N-(trans-4-morpholin-4-ylcyclohexyl)quinazolin-4-amine]",52
8,"c1nc(N[C@H]2CC[C@H](N3CCOCC3)CC2)c2cc(C3CCC3)ccc2n1 [Example 1-6, 6-cyclobutyl-N-(trans-4-morpholin-4-ylcyclohexyl)quinazolin-4-amine]",3
9,"c1nc(N[C@H]2CC[C@H](N3CCOCC3)CC2)c2cc(C3CCCC3)ccc2n1 [Example 1-7, 6-cyclopentyl-N-(trans-4-morpholin-4-ylcyclohexyl)quinazolin-4-amine]",5
10,"c1nc(N[C@H]2CC[C@H](N3CCOCC3)CC2)c2cc(C3CCCCC3)ccc2n1 [Example 1-8, 6-cyclohexyl-N-(trans-4-morpholin-4-ylcyclohexyl)quinazolin-4-amine]",19
11,"c1nc(N[C@H]2CC[C@H](N3CCOCC3)CC2)c2cc(C3COC3)ccc2n1 [Example 2-1, N-((trans)-4-morpholinocyclohexyl)-6-(oxetan-3-yl)quinazolin-4-amine]",32
12,"c1nc(N[C@H]2CC[C@H](N3CCOCC3)CC2)c2cc(C3CCOC3)ccc2n1 (stereo partly drawn) [Example 2-2, N-(trans-4-morpholin-4-ylcyclohexyl)-6-(tetrahydrofuran-3-yl)quinazolin-4-amine]",18
13,"c1nc(N[C@H]2CC[C@H](N3CCOCC3)CC2)c2cc(C3CCCO3)ccc2n1 (stereo partly drawn) [Example 3-1, N-((trans)-4-morpholinocyclohexyl)-6-(tetrahydrofuran-2-yl)quinazolin-4-amine]",170
14,"N#CC1CCC(c2ccc3ncnc(N[C@H]4CC[C@H](N5CCOCC5)CC4)c3c2)CC1 (stereo partly drawn) [Example 3-2, 4-{4-[(trans-4-morpholin-4-ylcyclohexyl)amino]quinazolin-6-yl}cyclohexanecarbonitrile]",169
15,"FC1(F)CCC(c2ccc3ncnc(N[C@H]4CC[C@H](N5CCOCC5)CC4)c3c2)CC1 [Example 3-3, 6-(4,4-difluorocyclohexyl)-N-(trans-4-morpholin-4-ylcyclohexyl)quinazolin-4-amine]",71
16,"c1nc(N[C@H]2CC[C@H](N3CCOCC3)CC2)c2cc(C3CCOCC3)ccc2n1 [Example 3-4, N-(trans-4-morpholin-4-ylcyclohexyl)-6-(tetrahydro-2H-pyran-4-yl)quinazolin-4-amine]",91
17,"c1nc(N[C@H]2CC[C@H](N3CCOCC3)CC2)c2cc(C3CCCOC3)ccc2n1 (stereo partly drawn) [Example 3-5, N-(trans-4-morpholin-4-ylcyclohexyl)-6-(tetrahydro-2H-pyran-3-yl)quinazolin-4-amine]",13
18,"O=C(O)C1CCC(c2ccc3ncnc(N[C@H]4CC[C@H](N5CCOCC5)CC4)c3c2)CC1 (stereo partly drawn) [Example 3-6, 4-{4-[(trans-4-morpholin-4-ylcyclohexyl)amino]quinazolin-6-yl}cyclohexanecarboxylic acid]",98
19,"OC1CCCC(c2ccc3ncnc(N[C@H]4CC[C@H](N5CCOCC5)CC4)c3c2)C1 (stereo partly drawn) [Example 4-2, 3-(4-(((trans)-4-Morpholinocyclohexyl)amino)quinazolin-6-yl)cyclohexanol]",55
